From patent US5760063A, “Arylhydrazone derivatives useful as antibacterial agents” (Scriptgen Pharmaceuticals, Inc., priority 1996, dated 1998)
≈ marks a conversion by molar mass, not a printed value.

Key:
Psuedomonas aeruginosa = assay: MIC assay, Psuedomonas aeruginosa (PS); type: cell-based; conditions: OD 595 nm after 18 hours
Experimental: (§1) Compounds were prepared to a concentration of 10 mM in 100% DMSO. These were then diluted to 200 μM with 50 mM tris. A 2% DMSO solution was prepared in 50 mM tris as well as a 20 μM solution of rifampicin in 2% DMSO with 50 mM tris. With each compound and control, one to one dilutions were made in a serial dilution fashion across microtiter plates with 50 mM tris. The highest concentration was 200 μM for each compound and 20 μM for rifampicin. The lowest concentrations were 1.562 μM and 0.156 μM for the compounds and rifampicin respectively.
(§2) S. aureus, E. coli, Psuedomonas aeruginosa, Enterobacter cloacae, and Enterococcus faecium cells had been grown up in a shake culture overnight at 37° C. in LB medium. These were diluted 500 fold and added to the compounds at an equal volume. The highest compound concentration was now 100 μM, and 10 μM for rifampicin. Baseline O.D. readings were taken at 595 nm utilizing a Bio-Rad 3550-UV plate reader. A second reading was taken after 18 hours.

Enterobacter cloacae = assay: MIC assay, Enterobacter cloacae (CL); type: cell-based; conditions: OD 595 nm after 18 hours
Experimental: as §1, §2

S. aureus = assay: MIC assay, S. aureus; type: cell-based; conditions: Staphylococcus aureus, 18 h, read-out: S. Aur. MIC
Experimental: as §1, §2

Enterococcus faecium = assay: MIC assay, Enterococcus faecium (FAE); type: cell-based; conditions: OD 595 nm after 18 hours
Experimental: as §1, §2

E. coli RNAP = E. coli RNAP (Escherichia coli, UniProt P0A8T7+P0A8V2); assay: High throughput in vitro transcription (RNAP) assay; type: biochemical; conditions: 60 minutes incubation
Experimental: (I) High Throughput in vitro Transcription (RNAP) Assay
The reagents are added to the DMSO/compound with a Tomtec Quadra. The Quadra acts as 96-tip pipetman, combined with a movable base. The reagents and compounds are stored and used in 96-well polypropylene u-bottom microtiter plates.
The Quadra is run in backfill mode (filled with water). A total of […] of reagents must be added. This is divided into a 20 ml RNAP/Txn Buffer mix and a 25 ml DNA/NTP/water mix. The RNAP mix is added first to allow the drug a chance to interact with RNAP before RNAP interacts with DNA (this interaction lasts less than 5 seconds). The mixing of the reagents is done with a multivortexer after all reagents have been added (setting 5.5 for 90 seconds).
After incubation for 60 minutes, the reaction is stopped with 150 ml 10% TCA, which also precipitates the RNA. The RNA is allowed to sit a room temperature for approximately 15-45 minutes (until all plates have been stopped and the cell harvester has been set up).
The TCA precipitated RNA is transferred to double-thick glass filtermats using a Tomtec cell harvester. The wells of the microtiter plate are washed with 5% TCA and sucked through the same filtermat. Two additional washes with 5 % TCA solution are sufficient to reduce background counts.
The filters are then dried at 60° for 60 minutes. It is important to remove all of the liquid, or this may quench the scintillation fluid when it is added.
The dry filters are sealed into plastic bags with a heat-sealer. A hole is cut in one corner and 12 ml of "β-plate scintillant" is added to each bag.
When choosing a scintillation counting program on the Wallac Microb 1450, it is important to choose one which counts using the appropriate window for P^32. Each well is counted for 3 seconds. The data obtained is used to calculate an lC50 value.

Sequence of E. coli RNAP (P0A8V2 whole entry): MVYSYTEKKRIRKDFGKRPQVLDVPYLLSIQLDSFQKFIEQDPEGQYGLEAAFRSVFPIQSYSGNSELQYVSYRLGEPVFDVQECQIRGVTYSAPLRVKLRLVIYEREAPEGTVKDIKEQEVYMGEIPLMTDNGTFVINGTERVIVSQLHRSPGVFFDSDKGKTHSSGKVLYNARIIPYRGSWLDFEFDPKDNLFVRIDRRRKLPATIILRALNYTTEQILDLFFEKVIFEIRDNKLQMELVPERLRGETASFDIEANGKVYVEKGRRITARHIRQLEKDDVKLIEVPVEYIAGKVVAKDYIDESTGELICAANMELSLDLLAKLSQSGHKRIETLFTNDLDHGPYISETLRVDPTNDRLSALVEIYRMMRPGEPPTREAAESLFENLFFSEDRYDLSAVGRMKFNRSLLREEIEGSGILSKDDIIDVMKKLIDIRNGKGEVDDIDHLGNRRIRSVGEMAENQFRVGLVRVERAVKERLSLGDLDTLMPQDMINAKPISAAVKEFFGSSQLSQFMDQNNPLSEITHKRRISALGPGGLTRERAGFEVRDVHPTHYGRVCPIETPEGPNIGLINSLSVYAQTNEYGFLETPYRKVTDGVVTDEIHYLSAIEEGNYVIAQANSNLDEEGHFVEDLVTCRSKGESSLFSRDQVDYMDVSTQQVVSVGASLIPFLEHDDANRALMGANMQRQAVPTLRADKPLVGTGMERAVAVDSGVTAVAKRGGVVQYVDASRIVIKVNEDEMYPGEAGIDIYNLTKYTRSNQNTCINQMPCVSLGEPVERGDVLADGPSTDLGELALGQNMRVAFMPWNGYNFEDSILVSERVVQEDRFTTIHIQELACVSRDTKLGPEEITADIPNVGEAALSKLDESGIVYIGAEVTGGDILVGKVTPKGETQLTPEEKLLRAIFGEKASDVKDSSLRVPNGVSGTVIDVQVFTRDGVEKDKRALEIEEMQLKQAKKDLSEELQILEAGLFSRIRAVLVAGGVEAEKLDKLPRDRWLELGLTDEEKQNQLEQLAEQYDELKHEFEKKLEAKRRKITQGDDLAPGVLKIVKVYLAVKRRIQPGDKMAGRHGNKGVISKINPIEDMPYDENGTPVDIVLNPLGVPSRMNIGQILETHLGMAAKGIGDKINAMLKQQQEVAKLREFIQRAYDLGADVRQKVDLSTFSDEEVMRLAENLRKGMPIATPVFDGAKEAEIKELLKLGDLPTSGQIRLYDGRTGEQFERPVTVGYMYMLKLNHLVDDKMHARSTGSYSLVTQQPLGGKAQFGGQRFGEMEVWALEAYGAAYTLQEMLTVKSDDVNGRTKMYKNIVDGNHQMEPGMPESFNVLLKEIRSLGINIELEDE
Sequence of E. coli RNAP (P0A8T7 whole entry): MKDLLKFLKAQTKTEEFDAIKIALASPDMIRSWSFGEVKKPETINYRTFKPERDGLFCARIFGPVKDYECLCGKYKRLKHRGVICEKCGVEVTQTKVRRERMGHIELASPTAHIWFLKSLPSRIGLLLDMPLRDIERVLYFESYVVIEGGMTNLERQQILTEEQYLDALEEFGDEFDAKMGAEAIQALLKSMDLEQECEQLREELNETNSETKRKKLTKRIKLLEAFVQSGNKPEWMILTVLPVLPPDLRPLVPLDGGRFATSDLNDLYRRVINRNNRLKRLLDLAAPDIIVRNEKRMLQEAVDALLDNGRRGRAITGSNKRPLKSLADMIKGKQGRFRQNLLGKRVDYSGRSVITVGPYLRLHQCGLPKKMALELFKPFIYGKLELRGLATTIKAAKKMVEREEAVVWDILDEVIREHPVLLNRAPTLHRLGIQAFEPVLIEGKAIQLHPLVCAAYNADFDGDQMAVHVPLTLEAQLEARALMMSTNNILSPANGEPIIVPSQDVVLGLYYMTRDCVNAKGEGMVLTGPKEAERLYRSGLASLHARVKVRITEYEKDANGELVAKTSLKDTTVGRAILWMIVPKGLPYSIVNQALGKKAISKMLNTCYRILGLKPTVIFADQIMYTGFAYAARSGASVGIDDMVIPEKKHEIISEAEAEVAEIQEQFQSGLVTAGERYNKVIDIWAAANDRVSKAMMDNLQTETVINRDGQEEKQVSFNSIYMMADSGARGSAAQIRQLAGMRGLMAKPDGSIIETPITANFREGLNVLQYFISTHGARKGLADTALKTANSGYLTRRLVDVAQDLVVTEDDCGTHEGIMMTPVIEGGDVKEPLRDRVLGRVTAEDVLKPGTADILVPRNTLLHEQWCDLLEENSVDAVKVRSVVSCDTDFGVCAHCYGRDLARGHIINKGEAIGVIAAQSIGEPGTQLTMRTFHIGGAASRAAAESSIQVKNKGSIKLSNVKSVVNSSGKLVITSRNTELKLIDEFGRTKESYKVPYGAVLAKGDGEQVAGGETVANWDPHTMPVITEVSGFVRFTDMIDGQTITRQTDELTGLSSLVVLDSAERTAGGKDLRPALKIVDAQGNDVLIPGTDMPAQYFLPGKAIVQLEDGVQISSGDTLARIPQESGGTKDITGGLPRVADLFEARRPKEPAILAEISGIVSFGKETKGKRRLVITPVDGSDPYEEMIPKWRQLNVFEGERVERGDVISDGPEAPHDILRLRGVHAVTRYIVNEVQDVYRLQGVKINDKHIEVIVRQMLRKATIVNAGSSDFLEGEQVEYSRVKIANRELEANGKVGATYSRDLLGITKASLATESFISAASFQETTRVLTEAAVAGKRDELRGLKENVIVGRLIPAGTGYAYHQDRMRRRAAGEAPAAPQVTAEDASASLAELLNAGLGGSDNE
Sequence of E. coli RNAP (P0A7Z4 whole entry partner): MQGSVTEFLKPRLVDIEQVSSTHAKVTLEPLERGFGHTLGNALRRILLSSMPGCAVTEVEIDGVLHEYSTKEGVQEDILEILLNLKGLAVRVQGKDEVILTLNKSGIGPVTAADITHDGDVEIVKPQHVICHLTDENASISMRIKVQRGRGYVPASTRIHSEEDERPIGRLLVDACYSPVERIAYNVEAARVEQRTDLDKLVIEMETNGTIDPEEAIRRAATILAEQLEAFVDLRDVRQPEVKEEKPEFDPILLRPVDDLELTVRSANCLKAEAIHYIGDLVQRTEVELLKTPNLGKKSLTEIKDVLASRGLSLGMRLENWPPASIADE

SMILES | MIC (Psuedomonas aeruginosa) [µM] | MIC (Enterobacter cloacae) [µM] | MIC (S. aureus) [µM] | MIC (Enterococcus faecium) [µM] | IC50 (E. coli RNAP) [µM]
CS(=O)(=O)c1ccc(NN=C(C#N)C(=O)c2ccc(Cl)cc2)cc1 [Example 1] | > 10 | < 0.5 | > 10 | > 10 | < 0.5
CS(=O)(=O)C(=NNc1ccc([N+](=O)[O-])cc1)C(=O)c1ccc(Cl)cc1 [Example 2] | > 10 | 0.5 to 10 (≈ 0.191 to 3.82 µg/mL) |  | > 10 | 0.5 to 10
CC(=O)N(N=C(C#N)C(=O)c1ccc(Cl)cc1)c1ccc([N+](=O)[O-])cc1 [Example 3] | > 10 | 0.5 to 10 (≈ 0.185 to 3.71 µg/mL) | > 10 | > 10 | 0.5 to 10
CSc1ccc(NN=C(C#N)C(=O)c2ccc(Cl)cc2)cc1 [Example 4] | > 10 | 0.5 to 10 (≈ 0.165 to 3.3 µg/mL) | > 10 | > 10 | 0.5 to 10
C[S+]([O-])c1ccc(NN=C(C#N)C(=O)c2ccc(Cl)cc2)cc1 (stereo not shown) [Example 5] | > 10 | 0.5 to 10 (≈ 0.173 to 3.46 µg/mL) | > 10 | > 10 | 0.5 to 10
N#CC(=NNc1ccc([N+](=O)[O-])cc1)C(=O)c1ccc(-c2ccccc2)cc1 [Example 6] | > 10 | 0.5 to 10 (≈ 0.185 to 3.7 µg/mL) | > 10 | 1 (≈ 0.37 µg/mL) | 0.5 to 10
CS(=O)(=O)Nc1ccc(NN=C(C#N)C(=O)c2ccc(Cl)cc2)cc1 [Example 7] | > 10 | 0.5 to 10 (≈ 0.188 to 3.77 µg/mL) |  | > 10 | 0.5 to 10
N#CC(=NNc1ccc([N+](=O)[O-])cc1)C(=O)c1ccc(Cl)nc1 [Example 8] |  |  |  |  | 0.5 to 10
N#CC(=NNc1ccc(C(=O)O)cc1)C(=O)c1ccc(Cl)cc1 [Example 9] | > 10 | > 10 |  | > 10 | > 10
CC(=O)Nc1ccc(NN=C(C#N)C(=O)c2ccc(Cl)cc2)cc1 [Example 10] | > 10 | > 10 |  | > 10 | > 10
CS(=O)(=O)c1ccc(NN=C(C#N)C(=O)c2ccc(-c3ccccc3)cc2)cc1 [Example 11] | > 10 | > 10 |  | > 10 | > 10
N#CC(=NNc1ccc(Cl)cc1)C(=O)c1ccc(-c2ccccc2)cc1 [Example 13] | > 10 | > 10 | > 10 | > 10 | > 10
CC(=O)N(N=C(C#N)C(=O)c1ccc(Cl)cc1)c1ccc(Cl)cc1 [Example 14] | > 10 | 0.5 to 10 (≈ 0.18 to 3.6 µg/mL) | > 10 | > 10 | > 10
Cc1c(C(=O)C(C#N)=NNc2ccc([N+](=O)[O-])cc2)sc2ccc(Cl)cc12 [Example 15] | > 10 | < 0.5 | > 10 | 0.5 to 10 (≈ 0.199 to 3.99 µg/mL) | < 0.5
Cc1c(C(=O)C(C#N)=NNc2ccc(C(C)C)cc2)sc2ccc(Cl)cc12 [Example 16] | > 10 | 0.5 to 10 (≈ 0.198 to 3.96 µg/mL) | > 10 | > 10 | 0.5 to 10
N#CC(=NNc1ccc([N+](=O)[O-])cc1)C(=O)c1ccc(Cl)cc1 [Example 17, 2-(4-nitrophenyl)hydrazono-3-oxo-3-(4-chlorophenyl)propionitrile] | > 10 | < 0.5 | 0.5 to 10 (≈ 0.164 to 3.29 µg/mL) | < 0.5 | < 0.5
N#CC(=NNc1ccc(OC(F)(F)F)cc1)C(=O)c1ccc(Cl)cc1 [Example 18] | > 10 | 0.5 to 10 (≈ 0.184 to 3.68 µg/mL) | 0.5 to 10 (≈ 0.184 to 3.68 µg/mL) | 0.5 to 10 (≈ 0.184 to 3.68 µg/mL) | 0.5 to 10
N#CC(=NNc1ccc(Cl)cc1)C(=O)c1ccc(Cl)cc1 [Example 19] | > 10 | 0.5 to 10 (≈ 0.159 to 3.18 µg/mL) | > 10 | > 10 | 0.5 to 10
N#CC(=NNc1cc(C(F)(F)F)cc(C(F)(F)F)c1)C(=O)c1ccccc1 [Example 20] | > 10 | 0.5 to 10 (≈ 0.193 to 3.85 µg/mL) | 0.5 to 10 (≈ 0.193 to 3.85 µg/mL) | > 10 | 0.5 to 10
N#CC(=NNc1ccc(F)cc1)C(=O)c1ccc(OC(F)(F)F)cc1 [Example 21] | > 10 | 0.5 to 10 (≈ 0.176 to 3.51 µg/mL) | 0.5 to 10 (≈ 0.176 to 3.51 µg/mL) | > 10 | 0.5 to 10
N#CC(=NNc1ccc([N+](=O)[O-])cc1)C(=O)c1cccc(Cl)c1 [Example 22] | > 10 | > 10 |  | > 10 | > 10
N#CC(=NNc1ccc([N+](=O)[O-])cc1)C(=O)c1ccccc1 [Example 23] | > 10 | 0.5 to 10 (≈ 0.147 to 2.94 µg/mL) | 0.5 to 10 (≈ 0.147 to 2.94 µg/mL) | > 10 | > 10
